Values of other authors, collected in patent US9636319B1, “Fumarate ester dosage forms” (priority 2015, dated 2017).
Structures can show the parent of a compound that is named as a salt.

Legend:
[1] = test system: Nuclear factor (erythroid-derived 2)-like 2 (Nrf2) pathway; conditions: in vitro and in vivo in animals and humans
[2] = test system: Human plasma protein; conditions: independent of concentration

Compound | quantifiability in plasma following oral administration (human, in vivo, po) | Nrf2 pathway activation [1] | Tmax without meal (MMF in plasma, before the delay by a meal) [h] | Tmax with meal (MMF in plasma, high-fat, high-calorie meal) [h] | median Tmax of MMF ([…]) [h] | dose dependence of Cmax and AUCoverall (dose range 120 mg to 360 mg) | reduction in the incidence of flushing (fed / postprandial state) | effect of a meal on AUC (high-fat, high-calorie meal) | decrease of Cmax by a meal (high-fat, high-calorie meal, MMF in plasma) [%] | circulating MMF at 24 hours (human, in vivo) | terminal half-life (human, in vivo) | involvement of the cytochrome P450 (CYP) system in metabolism (metabolism through the tricarboxylic acid (TCA) cycle) | Human plasma protein binding [2]
COC(=O)/C=C/C(=O)OC [DMF, dimethyl fumarate] | not quantifiable | activate | – | – | – | – | – | – | – | – | – | – | –
COC(=O)/C=C/C(=O)O [MMF, monomethyl fumarate] | – | – | 2.0 | 5.5 | 2 to 2.5 | increased approximately dose proportionally | approximately 25% | did not affect | 40 | no circulating MMF is present at 24 hours in the majority of individuals | approximately 1 hour | no involvement | 27-45%
